From US9969755B2, “Photodynamic therapy photosensitizers” (The Royal Institution for the Advancement of …, priority 2016, dated 2018)
Values after ≈ are worked out from the molar mass of the structure shown.

Key:
[1] = Time-resolved fluorescence (fluorescence lifetime, TCSPC); type: physicochemical; conditions: for increase in kdec upon halogen substitution: 4 vs 1, 6 vs 2, 3 vs 1, 5 vs 2; for kdec (fluorescence decay rate constant) / knr (non-radiative decay rate constant, (1−φf)×kdec) / krad (radiative rate constant, φf×kdec): acetonitrile, room temperature
Procedure: Fluorescence lifetime measurements were carried out using a Picoquant Fluotime 200 time correlated single photon counting (TCSPC) setup employing an LDH-P-C-470 picosecond diode laser (Picoquant) with an excitation wavelength at 466 nm as the excitation source. The laser was controlled by a PDL 800 B picosecond laser driver from Picoquant. ^1HNMR spectra were recorded on a Bruker AV 400 instrument at 400 MHz. ^13CNMR spectra were recorder on a Varian VNMRS 500 instrument at 125 MHz. ESI mass spectra were measured on a Bruker maXis impact. Laser Flash Photolysis (LFP) experiments were carried out in a commercially available Luzchem 212 LFP setup provided with a Tektronix TDS 2000 digitizer for signal capture. A Nd:Yag laser (Continuum model Surelite I-10 using a second harmonic generators, model number SL-SHG-T1) was used for excitation at a wavelength of 532 nm. Phosphorescence experiments were recorded using a Cary Eclipse Fluorescence Spectrophotometer. Singlet Oxygen phosphorescence was recorded with a Hamamatsu NIR detector (peltier cooled at −62.8° C. operating at 800 V, coupled to a grating monochromator) upon excitation with a 532 nm Nd:YAG laser. A customized Luzchem Research LFP-111 system was employed to collect and process the data. The steady-state fluorescence spectra were recorded between 500-800 nm (depending on each compound) upon exciting at the wavelength of the absorbance maxima. The excitation and emission slits were tuned according to the fluorescence quantum yield of each BODIPY (i.e. for compound 7 excitation slits were 5 nm and for compound 4 we used 2 nm). Fluorescence was recorded every 1 nm using 0.1 s integration time. For the Fluorescence lifetime measurements, the excitation rate was 10 MHz, and the detection frequency was less than 100 kHz. Photons were collected at the magic angle. The fluorescence decay traces were fit using FluoFit (Picoquant) software. For steady-state and time-resolved fluorescence measurements a quartz cuvette with a 10 mm path length was used and all the solutions were prepared in air equilibrated acetonitrile.

[2] = Intermolecular quenching of ^1O2 phosphorescence by chromanol rings; type: physicochemical; conditions: ^1O2 generated upon irradiation of compound 5, air equilibrated acetonitrile
From the text: To test whether 7 is equally efficient at deactivating ^1O2 as α-tocopherol, we generated ^1O2 upon irradiation of compound 5 and monitored the ^1O2 phosphorescence lifetime in the presence of increasing amounts of either 7 or PMHC (an α-tocopherol analogue lacking the phytyl tail).

[3] = Autocatalytic activation of compound 7 (monitoring ^1O2 phosphorescence); type: physicochemical
Procedure: ^1O2 phosphorescence (1270 nm) was monitored with a Hamamatsu NIR detector after different irradiation periods with a Nd:YAG laser operating at 10 Hz. The energy of each laser pulse was 10 mJ exciting at 532 nm. Using the same procedure as described above (Determination of ^1O2 Quantum Yield), a total of 3 laser shots were applied to acquire a trace at different time intervals following the continuous irradiation by a second Nd:YAG laser setup. Laser excitation was performed at 10 Hz, providing one laser output for every discharge of the flashlamp. The energy of each laser pulse was 10 mJ. To prepare the samples with PMHC, we first added to the solvent (acetonitrile, air equilibrated) the desired amount of PMHC from a stock solution. Then, compound 7 was dissolved until reaching Abs=0.3 ([7]=5.8 μM). For the samples containing compound 4, we first dissolved 4 in a stock solution of acetonitrile containing 0.12 μM of PMHC and then the desired volume of this solution was added to the solution containing 7 and same concentration of the antioxidant (0.12 μM of PMHC).

[4] = Autocatalytic activation of compound 7 (monitoring fluorescence); type: physicochemical
Procedure: The increase in the fluorescence emission due to autocatalytic activation of compound 7 was followed by continuous irradiation at 532 nm and 1.6 mW/cm^2 in air equilibrated acetonitrile using a PTI QuantaMaster spectrofluorimeter. The emission at 557 nm was measured as a function of the irradiation time. Samples were prepared as described above (see Autocatalytic Activation of Compound 7 (Monitoring ^1O2 Phosphorescence)).

E. coli ATCC 25922 [5] = assay: Photodynamic minimal inhibitory concentration (PD-MIC); type: cell-based; conditions: Escherichia coli
Procedure: (§1) The microorganism used for this study is E. coli ATCC 25922. Stock cultures were preserved at −70° C. using glycerol 10% (v/v) as the cryoprotectant, and the strain was grown in Luria Bertania broth (LB). Bacterial culture was prepared inoculating a single colony from a pure culture. After overnight incubation at 37° C. for 18 h, the culture reached a density of approximately 1×10^9 CFU/mL and it was diluted to 10^6 CFU/mL.
We carried out PDI in vitro studies with E. coli. Cells (10^6 CFU/mL) were incubated with 2-fold diluted solutions of compounds 7 and 9 (activated form of 7) in buffer PBS and LB at a proportion of 70:30% (v/v), to obtain concentrations between 40-0.078 μM. Stock solutions of BODIPY 7 and 9 (400 μM) were prepared in acetonitrile. […] PD-MIC was 40 μM for compounds 7 and 9 in dark conditions. Under light irradiation the PD-MIC was 40 μM and 10 μM for 7 and 9 respectively.

E. coli ATCC 25922 [6] = assay: Antibacterial photodynamic inactivation, regular vs hydrogen peroxide stressed bacteria (CFU counts); type: cell-based
Procedure: as §1
At the end of the irradiation time, 100 μL aliquots were placed in 96 wells from each tube and serially diluted 10-fold in PBS to obtain dilutions of 10^1 to 10^4 fold, in addition to the original concentration, on agar plates to determine CFU. Viability counts were performed at 0 and 1 hour in either dark or light conditions from each dilution, 10 μL aliquots were plated on LB agar. Plates were streaked in triplicate and incubated for 18 h at 37° C. Each experiment was performed at least three times on different days.
To stress the cells we utilized hydrogen peroxide, known to stimulate ROS production in Gram-negative cells.^79,80 We incubated bacteria from the E. coli strain (10^6 colony forming units (CFU)/mL) with 500 nM hydrogen peroxide for 2 hours at 37° C. Following precipitation and resuspension of this bacteria in media with no H2O2, we added compound 7. In parallel, compound 7 was also added to bacteria that were not exposed to H2O2.

Structure (SMILES)	increase in kdec upon halogen substitution [1]	kdec (fluorescence decay rate constant) [1]	knr (non-radiative decay rate constant, (1−φf)×kdec) [1]	krad (radiative rate constant, φf×kdec) [1]	also measured
CC1=C(I)C(C)=[N+]2C1=C(C)c1c(C)c(I)c(C)n1[B-]2(F)F [Compound 3, 2,6-diiodo-1,3,5,7,8-pentamethyl-pyrromethene fluoroborate]	ca. 27 fold	476.2 ± 0.7 × 10^7 s^−1	463.0 ± 0.7 × 10^7 s^−1	13.1 ± 0.2 × 10^7 s^−1	–
CC1=C(Br)C(C)=[N+]2C1=C(C)c1c(C)c(Br)c(C)n1[B-]2(F)F [Compound 4, 2,6-dibromo-1,3,5,7,8-pentamethyl-pyrromethene fluoroborate]	3.1 fold	55.3 ± 0.2 × 10^7 s^−1	44.2 ± 0.2 × 10^7 s^−1	11.0 ± 0.2 × 10^7 s^−1	–
CC(=O)OCC1=C2C(C)=C(I)C(C)=[N+]2[B-](F)(F)n2c(C)c(I)c(C)c21 [Compound 5, 8-Acetoxymethyl-2,6-diiodo-1,3,5,7-tetramethyl Pyrromethene Fluoroborate]	~42 fold	625.0 ± 0.7 × 10^7 s^−1	582.0 ± 0.7 × 10^7 s^−1	12.5 ± 0.2 × 10^7 s^−1	–
CC(=O)OCC1=C2C(C)=C(Br)C(C)=[N+]2[B-](F)(F)n2c(C)c(Br)c(C)c21 [Compound 6, 8-Acetoxymethyl-2,6-dibromo-1,3,5,7-tetramethyl Pyrromethene Fluoroborate]	4.5 fold	66.7 ± 0.3 × 10^7 s^−1	57.4 ± 0.2 × 10^7 s^−1	9.3 ± 0.1 × 10^7 s^−1	–
CC1=C(Br)C(C)=[N+]2C1=C(CC1(C)CCc3c(C)c(O)c(C)c(C)c3O1)c1c(C)c(Br)c(C)n1[B-]2(F)F (centres unmarked) [Compound 7, 8-((6-Hydroxy-2,5,7,8-tetramethylchroman-2-yl)-methyl)-2,6-dibromo-1,3,5,7-tetramethyl]	–	–	–	–	singlet oxygen quenching rate constant kq [2]: 2e+08 M⁻¹ s⁻¹; φΔ ([3]; 250 μM PMHC added, before prolonged irradiation): undetectable; ^1O2 phosphorescence lifetime ([3]; 250 μM PMHC added, within the instrument response): ~3 μs; increase in φΔ after prolonged irradiation ([3]; 250 μM PMHC, 8 hs, ˜300,000 laser shots, 10 mJ/pulse): ca. 25 fold; fraction of photoexcited 7 undergoing activation through reaction with its own singlet oxygen ([3]; assuming geminate quenching 100% effective, 5-3% chemical): smaller than 2×10^−4; fraction of photoexcited 7 effectively sensitizing singlet oxygen ([3]; assuming keT˜25×kISC and k′eT˜10×kq[O2]): < 4×10^−3; increase in φΔ over irradiation time ([3]; direct 532 nm laser excitation, air equilibrated acetonitrile, no PMHC): ca. 6 fold; fraction of 7 pre-oxidized during sample preparation [4]: less than 5%; Fluorescence intensity enhancements ([4]; 0.12 μM sacrificial PMHC, continuous irradiation at 532 nm): ~30 fold; k, apparent second order rate constant for autocatalytic activation ([4]; fit to equation 9, different conditions): ~133 M⁻¹ s⁻¹; MIC (E. coli ATCC 25922 [5]; ATCC25922, light or radiation study, under light irradiation): 40 µM (≈ 25 µg/mL); MIC (E. coli ATCC 25922 [5]; ATCC25922, dark conditions): 40 µM (≈ 25 µg/mL); colony forming units after irradiation, stressed cells (E. coli ATCC 25922 [6]; E. coli incubated with 500 nM hydrogen peroxide 2 h, 1 h irradiation 2.6 mW/cm^2, 520 nm): drastic drop in colony forming units; MIC (E. coli ATCC 25922 [6]; Escherichia coli, ATCC25922, 7 activated in the stressed bacterial suspension (500 nM hydrogen peroxide), 9 pre-activated with dicumyl peroxide, 1 hour, read-out: PD-MIC): 10 µM (≈ 6.24 µg/mL); colony forming units, dark controls (E. coli ATCC 25922 [6]; in the dark, 7 with or without H2O2): no effect in the CFU; colony forming units after irradiation, non-stressed cells (E. coli ATCC 25922 [6]; no H2O2, 1 h irradiation 2.6 mW/cm^2, 520 nm): No inactivation was observed
